# Where two headings read alike, the source gives them in different places.
# How the values were obtained:
# P. falciparum NF54 = assay: In vitro microplate assay against P. falciparum NF54 (3H-hypoxanthine incorporation); type: cell-based, Plasmodium falciparum; details: Plasmodium falciparum
# Method: Serial drug dilutions of eleven 3-fold dilution steps covering a range from 100 to 0.002 µg/mL were prepared. […] After 48 h of incubation time, 0.05 mL of ^3H-hypoxanthine (=0.5 µCi) was added to each well of the plate. The plates were incubated for a further 24 h under the same conditions. Plates were then harvested using a BetaplateTM cell harvester (Wallac, Zurich, Switzerland). Red blood cells were transferred onto a glass fiber filter and then washed with distilled aqua demin. The dried filters were inserted into a plastic foil with 10 mL of scintillation fluid and counted in a BetaplateTM liquid scintillation counter (Wallac, Zurich, Switzerland). IC50 values were calculated from sigmoidal inhibition curves by linear regression using Microsoft Excel. […] Louis, MO, USA) was used as control.
# [1] = Resazurin-based in vitro cytotoxicity with L-6 cells; type: cell-based, rat
# Method: Serial drug dilutions of eleven 3-fold dilution steps covering a range from 100 to 0.002 µg/mL were prepared. After 70 h of incubation, the plates were inspected under an inverted microscope to assure growth of the controls and sterile conditions. […] The plates were read with a Spectramax Gemini XS microplate fluorometer (Molecular Devices Cooperation, Sunnyvale, CA, USA) using an excitation wavelength of 536 nm and an emission wavelength of 588 nm. IC50 values were calculated by linear regression from the sigmoidal dose–inhibition curves using SoftmaxPro software Version 8.2.1 (Molecular Devices Cooperation, Sunnyvale, CA, USA). Podophyllotoxin (Sigma P4405) was used as control.
# [2] = Resazurin-based in vitro cytotoxicity with HepG2 cells; type: cell-based, human; details: HepG2 cells; human hepatocarcinoma cells, 48 h
# Method: The HepG2 cells were washed with DPBS (Dulbecco’s PBS without calcium and magnesium, Gibco, Cat #21600-044) and trypsinized with trypsin solution in DPBS. Trypsinization was stopped by adding culture medium, and after being stained with Trypan Blue (SORS Ukraine) cells were counted using a counting chamber (Hausser Scientific, Cat #3500). The cell suspension was placed in a falcon tube containing plating medium DMEM/High glucose with 1% fetal bovine serum, 100 units/mL penicillin, and 100 µg/mL streptomycin. Cells at a density of 250,000 cells/mL were seeded in sterile 384-well plates (Greiner Bio-One, Cat #781091) in a volume of […] and incubated at 37 °C and 5% CO2. Serial dilutions of ten 3-fold dilution steps of test and reference compounds covering a range from 100.0 to 0.005 µM were added to the wells, followed by incubation at 37 °C and 5% CO2 for 48 h. Then, resazurin (50 µM final concentration) was added and plates were incubated for another 3 h. The plates were read with a SpectraMax microplate reader (Molecular Devices Cooperation, Sunnyvale, CA, USA)) using an extinction wavelength of 555 nm and an emission wavelength of 570 nm. IC50 values were calculated using GraphPad Prism 9.0 charting software. Doxorubicin (Sigma Aldrich D1515) was used as control.
# [3] = Parallel artificial membrane permeability assay (PAMPA); details: for Papp at 5 h, 200 µM: PAMPA, pH 7.4, Pe, PBS pH 7.4, 200 µM, room temperature; for Pe: PAMPA standards
# Method: With the high-throughput PAMPA the newly synthesized compounds were tested for their passive permeability through cell membranes without the influence of efflux pumps or transporter proteins. The assay was performed using a Corning® Gentest^TM Precoated PAMPA Plate System (Corning, Glendale, AZ, USA) with 96-well polystyrene plates. The bottom of the acceptor plate consists of a porous membrane, whereby the pores are lined with a lipid–oil–lipid triple layer. Stock solutions of each test compound at 10 mM were prepared in DMSO or methanol and diluted with phosphate-buffered saline (PBS at a pH of 7.4) to a final concentration of 200 µM. […] The donor plate (bottom plate) was filled with the compound solutions, whereby all compounds were tested in quadruplicates. Each well of the acceptor plate (top plate) was filled with PBS buffer. Donor and acceptor plates were combined and incubated at room temperature for 5 h. After that, the plates were separated and 150 µL of each well of both plates were transferred to 96-well UV plates (Greiner Bio-One). Absorption at different wavelengths covering a range from 200 to 300 nm was measured using a SpectraMax M3 UV plate reader. […] The plates were analyzed at the wavelength where the R2 value of the calibration curve was higher than 0.99 [47].
# Recovery of compounds from donor and acceptor wells (mass retention) was calculated as shown in the equation below. Data were only accepted when recovery exceeded 70%. The equation is as follows:(3) R=1−[cDt×VD+cAt×VA]/(c0×VD) where
# B. subtilis 168a = assay: MIC/MBC microbroth dilution (EUCAST); type: cell-based, Bacillus subtilis; details: Bacillus subtilis, 168A
# Method: (§1) Minimum inhibitory concentrations (MIC values) were obtained using the microbroth dilution method as stated in the EUCAST guidelines. Tests were conducted on cation adjusted Mueller–Hinton broth (caMHB) or agar (caMHA). These were prepared and stored following the manufacturer’s guidelines. Biological organisms were prepared via growth on either Luria–Bertani (LB) or cation adjusted Mueller–Hinton agar plates. These were grown for 24 h at 37 °C, except for Micrococcus luteus where MICs took longer to grow and as a consequence were read after 48 h once a clear positive control could be observed. For the MIC experiment, the bacteria were prepared using the McFarland 0.5 standard and diluted 1 in 100 or 1 in 10 in caMHB following EUCAST and CSLI guidelines for the preparation of bacteria. Testing of the compounds using the microbroth dilution method took place in 96-well plates. Serial 2-fold dilutions of compounds in caMHB covering a range from 256 µg/mL to 0.25 µg/mL were prepared. Bacteria preparations (McFarland) were added to the compound dilutions, further halving the compound concentrations. The plate was then incubated for 18 h at 37 °C. Controls for the MIC experiments included a bacterial growth (positive) control of bacteria and caMHB only and a media only (negative) control. After incubation, the plates were read, whereby the positive control of bacteria was visible and the negative control was clear of contamination. The last clear well, where there is no growth of bacteria, was counted as the MIC value. […] The lowest concentration without any bacterial growth was counted as the MBC value. The following pathogens were used: Pseudomonas aeruginosa NCTC 13437, Escherichia coli NCTC 13353, Bacillus subtilis 168a, Serratia marcescens NCTC 9940, Micrococcus luteus ATCC 10240, Staphylococcus aureus JE2 USA 300, Acinetobacter baumannii ATCC 19606, and Klebsiella pneumoniae ATCC 700603. A concentration range of 256 µg/mL to 0.25 µg/mL of a combination of ciprofloxacin and meropenem against E. coli 25922 was used as an antibiotic control to ensure correct dilution and performance of the assay.
# S. aureus JE2 USA 300 = assay: MIC/MBC microbroth dilution (EUCAST); type: cell-based; details: Staphylococcus aureus, USA300, S. aureus JE2 USA 300
# Method: as §1
# [4] = system: K. pneumoniae ATCC 700603; assay: MIC/MBC microbroth dilution (EUCAST); type: cell-based; details: Klebsiella pneumoniae, ATCC700603
# Method: as §1
# P. aeruginosa NCTC 13437 = assay: MIC/MBC microbroth dilution (EUCAST); type: cell-based; details: Pseudomonas aeruginosa, NCTC13437
# Method: as §1
# S. marcescens NCTC 9940 = assay: MIC/MBC microbroth dilution (EUCAST); type: cell-based; details: Serratia marcescens, NCTC9940
# Method: as §1
# A. baumannii ATCC 19606 = assay: MIC/MBC microbroth dilution (EUCAST); type: cell-based, Acinetobacter baumannii; details: Acinetobacter baumannii
# Method: as §1
# E. coli NCTC 13353 = assay: MIC/MBC microbroth dilution (EUCAST); type: cell-based, Escherichia coli; details: Escherichia coli
# Method: as §1
# [5] = rat skeletal myofibroblasts, read-out: Cytotoxicity L-6 Cells IC50
# [6] = NF54, chloroquine-sensitive strain NF54, erythrocytic stages, read-out: P.f.NF54 IC50
structure (smiles),measurement,setting,value
"CCN(CC)CCCC(C)Nc1ccnc2cc(Cl)ccc12 (centres unmarked) [CQ, chloroquine, reference compound]",IC50,"P. falciparum NF54; NF54, read-out: P.f.NF54 IC50",0.009 µM
same,IC50 at 70 h,[1]; [5],90.9 µM
"CN1CCN(c2ccccc2NC(=O)c2cccc(C(F)(F)F)c2Oc2ccc(F)cc2)CC1 [Compound 31, 2-(4-Fluorophenoxy)-N-[2-(4-methylpiperazin-1-yl)phenyl]-3-(trifluoromethyl)benzamide]",IC50,P. falciparum NF54; [6],14 µM
same,IC50 at 70 h,[1]; rat,120 µM
"O=C(Nc1ccccc1N1CCOCC1)c1cccc(C(F)(F)F)c1Oc1ccc(F)cc1 [Compound 32, 2-(4-Fluorophenoxy)-N-[2-(morpholin-4-yl)phenyl]-3-(trifluoromethyl)benzamide]",IC50,P. falciparum NF54; [6],3.04 µM
same,IC50 at 48 h,[2],> 100 µM
same,"Papp at 5 h, 200 µM",[3],66.3 nm/s
same,IC50 at 70 h,[1]; rat,161 µM
"O=C(Nc1ccc(N2CCOCC2)cc1)c1cccc(C(F)(F)F)c1Oc1ccc(F)cc1 [Compound 33, 2-(4-Fluorophenoxy)-N-[4-(morpholin-4-yl)phenyl]-3-(trifluoromethyl)benzamide]",IC50,P. falciparum NF54; [6],6.81 µM
same,IC50 at 48 h,[2],35.3 µM
same,"Papp at 5 h, 200 µM",[3],39.2 nm/s
same,IC50 at 70 h,[1]; rat,195 µM
"CN(C)c1ccccc1NC(=O)c1cccc(C(F)(F)F)c1Oc1ccc(F)cc1 [Compound 35, N-[2-(Dimethylamino)phenyl]-2-(4-fluorophenoxy)-3-(trifluoromethyl)benzamide]",IC50,P. falciparum NF54; [6],4.4 µM
same,IC50 at 70 h,[1]; rat,25.1 µM
"CN(C)c1ccc(NC(=O)c2cccc(C(F)(F)F)c2Oc2ccc(F)cc2)cc1 [Compound 36, N-[4-(Dimethylamino)phenyl]-2-(4-fluorophenoxy)-3-(trifluoromethyl)benzamide]",IC50,P. falciparum NF54; [6],7.58 µM
same,IC50 at 48 h,[2],> 100 µM
same,IC50 at 70 h,[1]; rat,239 µM
"CC(C)(C)OC(=O)N1CCN(C(=O)c2cccc(C(F)(F)F)c2Oc2ccc(F)cc2)CC1 [Compound 50, tert-Butyl-4-[2-(4-fluorophenoxy)-3-(trifluoromethyl)benzoyl]piperazine-1-carboxylate]",IC50,P. falciparum NF54; [6],51.8 µM
same,IC50 at 48 h,[2],35.2 µM
same,"Papp at 5 h, 200 µM",[3],18.2 nm/s
same,IC50 at 70 h,[1]; rat,41.4 µM
"O=C(Nc1ccccc1N1CCNCC1)c1cccc(C(F)(F)F)c1Oc1ccc(F)cc1 [Compound 53, 2-(4-Fluorophenoxy)-N-[2-(piperazin-1-yl)phenyl]-3-(trifluoromethyl)benzamide]",IC50,P. falciparum NF54; [6],1.04 µM
same,IC50 at 48 h,[2],4.1 µM
same,"Papp at 5 h, 200 µM",[3],63.9 nm/s
same,IC50 at 70 h,[1]; rat,13.5 µM
"CC(=O)Nc1ccc(Oc2c(C(=O)Nc3ccccc3N3CCNCC3)cccc2C(F)(F)F)cc1 [Compound 54, 2-(4-Acetamidophenoxy)-N-[2-(piperazin-1-yl)phenyl]-3-(trifluoromethyl) benzamide]",IC50,P. falciparum NF54; [6],11.1 µM
same,"Papp at 5 h, 200 µM",[3],2.6 nm/s
same,IC50 at 70 h,[1]; rat,13.2 µM
"O=C(Nc1cccc(N2CCNCC2)c1)c1cccc(C(F)(F)F)c1Oc1ccc(F)cc1 [Compound 56, 2-(4-Fluorophenoxy)-N-[3-(piperazin-1-yl)phenyl]-3-(trifluoromethyl)benzamide]",IC50,P. falciparum NF54; [6],5.45 µM
same,MBC,B. subtilis 168a,256 mg/L
same,MIC,B. subtilis 168a; read-out: MIC,128 mg/L
same,MBC,S. aureus JE2 USA 300,256 mg/L
same,MIC,S. aureus JE2 USA 300,256 mg/L
same,MBC,[4],> 256 mg/L
same,MIC,[4],> 256 mg/L
same,MBC,P. aeruginosa NCTC 13437,> 256 mg/L
same,MIC,P. aeruginosa NCTC 13437,256 mg/L
same,MBC,S. marcescens NCTC 9940,> 256 mg/L
same,MIC,S. marcescens NCTC 9940,256 mg/L
same,IC50 at 48 h,[2],12.7 µM
same,"Papp at 5 h, 200 µM",[3],70.3 nm/s
same,IC50 at 70 h,[1]; rat,34.2 µM
same,MBC,A. baumannii ATCC 19606; ATCC19606,256 mg/L
same,MIC,"A. baumannii ATCC 19606; ATCC19606, read-out: MIC",128 mg/L
same,MBC,E. coli NCTC 13353; NCTC13353,> 256 mg/L
same,MIC,"E. coli NCTC 13353; NCTC13353, read-out: MIC",256 mg/L
"CC(=O)Nc1ccc(Oc2c(C(=O)Nc3ccc(N4CCNCC4)cc3)cccc2C(F)(F)F)cc1 [Compound 63, 2-(4-Acetamidophenoxy)-N-[4-(piperazin-1-yl)phenyl]-3-(trifluoromethyl)benzamide]",IC50,P. falciparum NF54; [6],15.7 µM
same,IC50 at 70 h,[1]; rat,113 µM
"O=C(Nc1ccc(N2CCNCC2)cc1)c1cccc(C(F)(F)F)c1 [Compound 66, N-[4-(Piperazin-1-yl)phenyl]-3-(trifluoromethyl)benzamide]",IC50,P. falciparum NF54; [6],2.6 µM
same,IC50 at 48 h,[2],11.8 µM
same,"Papp at 5 h, 200 µM",[3],39.1 nm/s
same,IC50 at 70 h,[1]; rat,41.5 µM
"COc1cccc2c1C(=O)c1c(O)c3c(c(O)c1C2=O)C[C@@](O)(C(=O)CO)C[C@@H]3O[C@H]1C[C@H](N)[C@H](O)[C@H](C)O1 [DOX, doxorubicin, reference compound]",IC50 at 48 h,[2],0.3 µM
"COc1cc([C@@H]2c3cc4c(cc3[C@H](O)[C@H]3COC(=O)[C@H]23)OCO4)cc(OC)c1OC [POD, podophyllotoxin, reference compound]",IC50 at 70 h,[1]; [5],0.012 µM
"Cn1c(=O)c2c(ncn2C)n(C)c1=O [caffeine, reference compound]",Pe,[3],80 nm/s
"NS(=O)(=O)c1cc2c(cc1Cl)NCNS2(=O)=O [hydrochlorothiazide, reference compound]",Pe,[3],0.9 nm/s

# From article PMC12298624, “Anti-Infective Properties, Cytotoxicity, and In Silico ADME Parameters of Novel 4′-(Piperazin-1-yl)benzanilides” (Pharmaceuticals, 2025)
